From ChEMBL document CHEMBL3044959, “Feeding deterrents from Aconitum episcopale roots against the red flour beetle, Tribolium castaneum” (J Agric Food Chem, 2011) come the findings set out here.

Molecules are shown by their SMILES.

Data set [1] relates to Tribolium castaneum. The data set is described as follows: Feeding deterrent activity against Tribolium castaneum (red flour beetle) adults using wheat flour assessed as consumption of diet at 300 ppm measured after 3 days relative to untreated control. The class given is functional.
Data set [2] relates to Tribolium castaneum. The data set is described as follows: Feeding deterrent activity against Tribolium castaneum (red flour beetle) adults using wheat flour assessed as consumption of diet at 1000 ppm measured after 3 days relative to untreated control. The class given is functional.
The test system of data set [3] is Tribolium castaneum. The data set is described as follows: Feeding deterrent activity against Tribolium castaneum (red flour beetle) adults using wheat flour assessed as consumption of diet at 10 ppm measured after 3 days relative to untreated control. It counts as functional.
In data set [4] the test system is Tribolium castaneum. The data set is described as follows: Feeding deterrent activity against Tribolium castaneum (red flour beetle) adults using wheat flour assessed as consumption of diet at 30 ppm measured after 3 days relative to untreated control. It counts as functional.
The subject of data set [5] is Tribolium castaneum. The data set is described as follows: Feeding deterrent activity against Tribolium castaneum (red flour beetle) adults using wheat flour assessed as consumption of diet at 100 ppm measured after 3 days relative to untreated control. The class given is functional.
Data set [6] relates to Tribolium castaneum. The data set is described as follows: Feeding deterrent activity against Tribolium castaneum (red flour beetle) adults using wheat flour assessed as inhibition of insect feeding measured after 3 days. It counts as functional, organism-based.
Data set [7] can be described thus: Toxicity in ip dosed Mus musculus (mouse). The class given is organism-based. As to conditions: in vivo.
Data set [8] can be described thus: Toxicity in iv dosed Mus musculus (mouse). The class given is organism-based. As to conditions: in vivo.
A short description of data set [9]: Toxicity in po dosed Mus musculus (mouse). It counts as organism-based. To be noted: in vivo.

`CCN1C[C@]2(COC)CC[C@H](OC)[C@]34C1[C@H]([C@H](OC)[C@H]23)[C@@]1(O)C[C@H](OC)[C@H]2C[C@@H]4[C@@H]1[C@H]2O` [CHASMANINE]: the Activity in the data set with Tribolium castaneum [1] is 69.59%; in the data set with Tribolium castaneum [2] it was 53.29%; with Tribolium castaneum [3] it was 90.55%; with Tribolium castaneum [4] it was 72.47%; with Tribolium castaneum [5], 61.64%.
Consider `CCN1C[C@]2(COC)CC[C@H](OC)[C@]34C1[C@H]([C@H](OC)[C@H]23)[C@@]1(OC(C)=O)C[C@H](OC)[C@@]2(O)C[C@@H]4[C@@H]1[C@H]2OC(=O)c1ccc(OC)cc1` [CRASSICAULINE A], for which the EC50 with Tribolium castaneum [6] was determined as 1134.5 ppm. The Activity in the data set on Tribolium castaneum [1] is recorded as 53.83%; in the data set on Tribolium castaneum [2] it was 39.59%; in the data set on Tribolium castaneum [3], 97.81%; in the data set on Tribolium castaneum [4], 89.73%; in the data set on Tribolium castaneum [5], 78.36%.
As to `CCN1C[C@]2(C)CC[C@H](O)[C@@]34C5C[C@@H]6[C@@H](OC)C[C@@](O)(C5[C@H]6O)[C@@H](CC23)C14` (some centres not stated) [KARACOLINE], the EC50 with Tribolium castaneum [6] was 395.2 ppm. In addition, the LD50 is 298 mg/kg in data set [7] and 51.5 mg/kg in [8]. For the same compound, the Activity is on record as 54.66% with Tribolium castaneum [1]; 43.84% in the data set on Tribolium castaneum [2]; 92.96% in the data set on Tribolium castaneum [3]; 77.95% with Tribolium castaneum [4]; 65.07% with Tribolium castaneum [5].
With `CCN1C[C@]2(C)CC[C@H](OC)[C@]34C1[C@H](C[C@H]23)[C@@]1(O)C[C@H](OC)[C@H]2C[C@@H]4[C@@H]1[C@H]2O` [SACHACONITINE], the EC50 in the data set with Tribolium castaneum [6] came to 427.8 ppm. The Activity with Tribolium castaneum [1] stood at 53.7%; in the data set with Tribolium castaneum [2], 38.08%; in the data set with Tribolium castaneum [3], 93.97%; in the data set with Tribolium castaneum [4], 71.78%; in the data set on Tribolium castaneum [5] it was 62.19%.
For `CCN1C[C@]2(COC)CC[C@H](OC)[C@]34C1[C@H](C[C@H]23)[C@@]1(O)C[C@H](OC)[C@H]2C[C@@H]4[C@@H]1[C@H]2O` [TALATISAMINE], the EC50 with Tribolium castaneum [6] is on record as 342.8 ppm. The Activity in the data set on Tribolium castaneum [1] was 58.63%; with Tribolium castaneum [2], 48.77%; with Tribolium castaneum [3] it was 92.47%; with Tribolium castaneum [4], 75.89%; with Tribolium castaneum [5], 60.82%.
On to `CC(=O)O[C@@H]1C[C@H](O)[C@@]23CO[C@@H](O)[C@]1(C)[C@@H]2C[C@@H](O)[C@]1(C)[C@@H]3C(=O)[C@H](OC(C)=O)[C@@]2(C)[C@H](c3ccoc3)C[C@H]3O[C@]321` [TOOSENDANIN], for which, in the data set on Tribolium castaneum [6], the EC50 was found to be 94.3 ppm.
As for `CCN1C[C@]2(COC)[C@H](O)C[C@H](OC)[C@]34C1[C@H]([C@H](OC)[C@H]23)[C@@]1(OC(C)=O)C[C@H](OC)[C@@]2(O)C[C@@H]4[C@@H]1[C@H]2OC(=O)c1ccc(OC)cc1` [YUNACONITINE], the EC50 in the data set on Tribolium castaneum [6] was determined as 654.3 ppm. In data set [9], this compound returned an LD50 of 2.97 mg/kg. For the same compound, the figures for the Activity in the data set with Tribolium castaneum [3], with Tribolium castaneum [4] and in the data set with Tribolium castaneum [5] were 96.75%, 85.48% and 68.37%, respectively.
